Here are results for seven compounds from patent US9403850B2, “Beta-lactamase inhibitors” (priority 2013, dated 2016).

One test addresses T1, VIM-2 (Escherichia coli, UniProt Q5U7L7).
T1 construct: made in house; host or cells: E. coli BL21(DE3)
Briefly: β-Lactamase enzyme inhibition assay, VIM-2 (nitrocefin substrate). In kind it is biochemical. Particulars: nitrocefin substrate 100 μM, 15 min preincubation at 37° C.; read-out: IC50, Class B VIM-2. The procedure: For Vim-2 metallo β-lactamase, the procedure was identical with the following exceptions, first the protein was not pH adjusted to pH 5 with 50 mM sodium acetate, second, the chromatography step was changed to a 5 ml Q sepharose anion exchange column pre-equilibrated with 50 mM Hepes pH 7.5, and elution of the protein was achieved by a linear gradient of NaCl (0-600 mM). Finally, the VIM-2 purification required a second run (3rd step) on the Q sepharose anion exchange column to achieve acceptable purity (>90%).
An equal volume of diluted enzyme stock was added, and the plates were incubated at 37° C. for 15 min. Nitrocefin was used as substrate for p99 AmpC, VIM-2 and OXA-1 and dispensed into each well at a final concentration of 100 μM. Absorbance at 486 nm was immediately monitored for 10 min using a Biotek Powerwave XS2 microplate spectrophotometer using the GEN5 softweare package (Biotek Instruments, Winooski Vt.). In an analogous fashion, imipenem was used as substrate for Kpc-2 and Cefotaxime was used for SHV-5, while changes in absorbance upon hydrolysis of the β-lactam ring were monitored at 300 nm and 260 nm respectively in UV-transparent 96-well microtiter assay plates. Maximum rates of hydrolysis were compared to those in control wells (without inhibitors), and percentages of enzyme inhibition were calculated for each concentration of inhibitor. The concentration of inhibitor needed to reduce the initial rate of hydrolysis of substrate by 50% (IC50) was calculated as the residual activity of β-lactamase at 486 nm using GraFit version 7 kinetics software package (Erithacus Software, Surrey, UK).
Using the methodology described above, examples of the current invention were evaluated for their ability to inhibit β-lactamase enzymes from all four Ambler classifications (A through D). […] NT=Not tested.

For test [1], the system named is S. aureus MSSA-7 producing penicillinase PC-1. Briefly: Broth microdilution MIC assay, partner piperacillin. In kind it is cell-based. As to conditions: Staphylococcus aureus, fixed piperacillin 4 μg/mL, read-out: MIC of Exemplary Compounds in presence of fixed β-lactams, Fixed Pip, S. aureus MSSA-7 PC-1.
For test [2], the system named is E. coli ESBL4 expressing CTX-M-15. Briefly: Broth microdilution MIC assay, partner ceftazidime.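 Also: ceftazidime held fixed at 4 µg/mL.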 In kind it is cell-based. Particulars: Escherichia coli, read-out: MIC of Exemplary Compounds in presence of fixed β-lactams, Fixed CAZ, E. coli ESBL4 CTX-M-15.
The subject of test [3] is P. aeruginosa Ps296 expressing VIM-2. Kind of test: Broth microdilution MIC assay, partner meropenem. In kind it is cell-based. Particulars: Pseudomonas aeruginosa, read-out: MIC of Exemplary Compounds in presence of fixed β-lactams, Fixed Mero, P. aerug. Ps296 VIM-2.
The test system of test [4] is K. pneumoniae A-1797 expressing KPC-2 and VIM-4. Briefly: Broth microdilution MIC assay, partner meropenem. It counts as cell-based. Particulars: Klebsiella pneumoniae, read-out: MIC of Exemplary Compounds in presence of fixed β-lactams, Fixed Mero, K.P. A-1797 KPC-2 VIM-4.
Test [5] relates to E. cloacae 144200 expressing Class C P99 AmpC. Kind of test: Broth microdilution MIC assay, partner ceftazidime.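 Also: ceftazidime held fixed at 4 µg/mL.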 As to conditions: Enterobacter cloacae, read-out: MIC of Exemplary Compounds in presence of fixed β-lactams, Fixed CAZ, E. cl. 144200 p99 AmpC. It counts as cell-based.
Test [6] deals with K. pneumoniae 156319 expressing KPC-3. Kind of test: Broth microdilution MIC assay, partner meropenem. It counts as cell-based. As to conditions: Klebsiella pneumoniae, read-out: MIC of Exemplary Compounds in presence of fixed β-lactams, Fixed Mero, K.P. 156319 KPC-3.

Structures are written as SMILES. pIC50: −log10 of the molar value.

As for `Cc1ccc(C(=O)N[C@H]2Cc3cccc(C(=O)O)c3OB2O)cc1NC(=O)[C@@H](N)CN` [Example 22, (R)-3-(3-((S)-2,3-diaminopropanamido)-4-methylbenzamido)-2-hydroxy-3,4-dihydro-2H-benzo[e][1,2]oxaborinine-8-carboxylic acid], the negative-log IC50 (pIC50) on VIM-2 is 6.00 to 7.00. Further, the minimal inhibitory concentration (MIC) in test [1] is less than 4 mg/L; in test [2], less than 4 mg/L; in test [3], more than 32 mg/L; in test [4], 8 to 32 mg/L; in test [5], less than 4 mg/L; in test [6], less than 4 mg/L.
Turning to `O=C(N[C@H]1Cc2cccc(C(=O)O)c2OB1O)c1ccc2nccnc2c1` [Example 29, (R)-2-hydroxy-3-(quinoxaline-6-carboxamido)-3,4-dihydro-2H-benzo[e][1,2]oxaborinine-8-carboxylic acid], the pIC50 at VIM-2 was 5.00 to 6.00. Moreover, the minimal inhibitory concentration (MIC) was less than 4 mg/L in test [1]; less than 4 mg/L in test [2]; more than 32 mg/L in test [3]; more than 32 mg/L in test [4]; less than 4 mg/L in test [5]; less than 4 mg/L in test [6].
For the compound `NC1=NCc2ccc(C(=O)N[C@H]3Cc4cccc(C(=O)O)c4OB3O)cc2CN1` [Example 17, (R)-3-(3-amino-4,5-dihydro-1H-benzo[e][1,3]diazepine-7-carboxamido)-2-hydroxy-3,4-dihydro-2H-benzo[e][1,2]oxaborinine-8-carboxylic acid], the pIC50 at VIM-2 was more than 7.00. Moreover, the minimum inhibitory concentration (MIC) in test [1] was less than 4 mg/L; in test [2], less than 4 mg/L; in test [3], 8 to 32 mg/L; in test [4], less than 4 mg/L; in test [5], less than 4 mg/L; in test [6], less than 4 mg/L.
In the case of `NCCNc1ccc(CC(=O)N[C@H]2Cc3cccc(C(=O)O)c3OB2O)cn1` [Example 60, (R)-3-(2-(6-(2-aminoethylamino)pyridin-3-yl)acetamido)-2-hydroxy-3,4-dihydro-2H-benzo[e][1,2]oxaborinine-8-carboxylic acid], at VIM-2, the negative-log IC50 (pIC50) was 6.00 to 7.00. The MIC in test [1] was less than 4 mg/L; in test [2], less than 4 mg/L; in test [3], less than 4 mg/L; in test [4], 8 to 32 mg/L; in test [5], less than 4 mg/L; in test [6] it was less than 4 mg/L.
On to `NCc1ccc(CC(=O)N[C@H]2Cc3cccc(C(=O)O)c3OB2O)cc1CN` [Example 20, (R)-3-(2-(3,4-bis(aminomethyl)phenyl)acetamido)-2-hydroxy-3,4-dihydro-2H-benzo[e][1,2]oxaborinine-8-carboxylic acid], for which, on VIM-2, the pIC50 was more than 7.00. In addition, the MIC in test [1], in test [2], in test [3], in test [4], in test [5] and in test [6] was less than 4 mg/L each time.
Turning to `CNCc1ccc(C(=O)N[C@H]2Cc3cccc(C(=O)O)c3OB2O)cc1CNC` [Example 19, (R)-3-(3,4-bis((methylamino)methyl)benzamido)-2-hydroxy-3,4-dihydro-2H-benzo[e][1,2]oxaborinine-8-carboxylic acid], on VIM-2, the pIC50 was more than 7.00. In addition, the minimum inhibitory concentration (MIC) in test [1], in test [2], in test [3], in test [4], in test [5] and in test [6] was less than 4 mg/L each time.
Regarding `O=C(O)c1cccc2c1OB(O)[C@@H](NC(=O)C1(c3ccccc3)CC1)C2` [Example 1, (R)-2-hydroxy-3-(1-phenylcyclopropanecarboxamido)-3,4-dihydro-2H-benzo[e][1,2]oxaborinine-8-carboxylic acid], at VIM-2, the pIC50 is 6.00 to 7.00. For the same compound, the MIC in test [2] was less than 4 mg/L; in test [3] it was 8 to 32 mg/L; in test [5] it was less than 4 mg/L; in test [6], 8 to 32 mg/L.
